Test results reported in patent publication US8735152B2, “Methods for inducing cell death in pluripotent stem cells and differentiated cells other than cardiac myocytes” (Daiichi Sankyo Company, Limited, priority 2009, dated 2014).

Tests used:
[1] = Saccharide concentration and osmotic pressure of hypertonic solutions (measured values); type: physicochemical
Description: When the hypertonic solution having an osmotic pressure of 370 mOsm/kg or higher is prepared by adding a saccharide to the culture medium, the method of the present invention is characterized in that the hypertonic solution contains the saccharide in 0.1-1 M (mol/L), preferably 0.1-0.6 M (mol/L). The relation between the concentration of saccharide (mol/L) and the osmotic pressure (mOsm/kg) can be approximated by a substantially straight line; a hypertonic solution containing 0.1 M saccharide corresponds to one having an osmotic pressure of approximately 370 mOsm/kg and a hypertonic solution containing 1 M saccharide corresponds to one having an osmotic pressure of approximately 1300-1600 mOsm/kg.
Hypertonic solutions were prepared using various saccharides and the relation between the saccharide concentration and the osmotic pressure is shown in the following table for typical saccharides.

[2] = system: human embryonic stem cells; experiment: Cell death inducing effect on human embryonic stem cells (TMRM FACS, 5-day adherent culture); type: cell-based; conditions: 0.45 M
Description: The human embryonic stem cells were obtained from Stem Cell Research Center, Institute for Frontier Medical Sciences, Kyoto University (ES cell center sponsored by the National Bio-Resource Project) (Suemori, H et al., Biochem. Biophys. Res. Commun., Vol. 345, 2006, pp. 926-932). The cells were cultured basically in accordance with the method described in this document. To be more specific, the human embryonic stem cells were cultured to maintain their undifferentiated state using mouse embryonic fibroblasts (MEF) that had been inactivated for growth by treatment with mitomycin C. The culture medium of F12/DMEM (1:1) (SIGMA; Product No. D6421), supplemented with 20% KO-SERUM (GIBCO), 1.6 mM L-glutamine, 0.1 mM non-essential amino acids (MEM), 0.1 mM β-mercaptoethanol (2-ME; Sigma), 100 IU/ml penicillin, 100 μg/ml streptomycin sulfate, and recombinant human basic fibroblast growth factor (bFGF; Reprotech) was used. Upon passaging, the cells were treated with 0.1% type III collagenase (Wortington) at 37° C. for 10 minutes to separate embryonic stem cell colonies. After passaging, the cells were dispersed with each other using TE (0.25% trypsin (GIBCO) and 1 mM EDTA) and in accordance with a published document (Watanabe, K. et al., Nat. Biotechnol., 2007, 25: 681-686, Epub 2007 May 27), 10 μM of a ROCK inhibitor (Y27632) was added to suppress cell death. At the same time, the mitochondria in the live cells were stained with 50 nM TMRM. Part of the stained cells were treated with an α-MEM culture medium containing 0.45 M mannitol (approximately equivalent to 720 mOsm/kg) for 2, 3 or 4 hours and three samples were prepared from these cells; the rest of the stained cells were treated with a mannitol-free α-MEM culture medium for 2 hours and a sample was prepared from these cells as a control. In the control, cells were aggregated with each other to make masses, so before FACS analysis, the treated groups and the control were given another treatment with trypsin and EDTA to disperse the cells. The cells treated with mannitol for 2, 3 or 4 hours and the control cells were analyzed by FACS for the level of mitochondrial membrane potential on the basis of the fluorescent intensity of TMRM to check the state of survival of the stem cells; the results are shown in FIG. 7. […] In addition, the TMRM-stained cells were photographed, both for the case of 2-h treatment with mannitol and for the control (FIG. 8)). […] Changes in the mitochondrial membrane potential were observed using the experimental technique of Example 5, provided that the human embryonic stem cells were treated not with mannitol, but with 0.45 M of various other saccharides (sugar alcohols: sorbitol and xylitol; sugars: sucrose and glucose; betaines: trimethylglycine) (approximately equivalent to 750-780 mOsm/kg) for 2 hours.

[3] = system: cardiomyocyte containing mouse embryoid bodies; experiment: Low-concentration mannitol treatment of cardiomyocyte containing mouse embryoid bodies; type: cell-based; conditions: 0.2 M, 72 hours
Description: Additionally, similar to the method described in Example 1, 75 mouse embryonic stem cells per EB were cultured as cell masses for a total of 7 days by the hanging-drop technique using a culture medium [α-MEM (minimum essential medium) (SIGMA), supplemented with 10% FBS (EQUITEC BIO), 100 units/ml penicillin, and 50 μg/ml streptomycin (GIBCO)], whereby the stem cells were differentiated into cell masses containing cardiomyocytes; thereafter, the embryoid bodies were adhered to the culture dish and cultured for another 3-5 days under the conditions of 37° C. and 5% CO2.

**Q.** Which results are given for `OC[C@@H](O)[C@@H](O)[C@H](O)[C@H](O)CO` [mannitol]?
**A.** Osmotic pressure ([1]; saccharide concentration 0.2 M in culture medium): ~480 mOsm/kg; Osmotic pressure ([1]; saccharide concentration 0.45 M in culture medium): ~720 mOsm/kg; Osmotic pressure ([1]; saccharide concentration 0.45 M in culture medium, listed as Mannitol): 717 mOsm/kg; Osmotic pressure ([1]; saccharide concentration 0.6 M in culture medium): 875 mOsm/kg; Osmotic pressure ([1]; saccharide concentration 0.9 M in culture medium): 1234 mOsm/kg; Mitochondrial membrane potential (TMRM fluorescence, FACS) ([2]; 2 hours): almost all of the cells treated with mannitol for 2 hours had lost membrane potential; Self-aggregation of cells immediately after treatment ([2]; 2 hours, photographs of TMRM-stained cells): remained dispersed; Survival after adherent culture for 5 days ([2]; then 5 days adherent culture): none of the cells exposed to mannitol were found live; State of cells other than cardiomyocytes and of cardiomyocytes [3]: almost all cells other than cardiomyocytes had died and only the cardiomyocytes survived selectively
